{"source": "paper PMC8799717", "about": "“Pharmacological targeting PIKfyve and tubulin as an effective treatment strategy for double-hit lymphoma” (Cell Death Discovery, 2022)", "experiment_in_all_cases": "biochemical", "parameters_in_all_cases": "KINOMEscan active-site-directed competition binding panel, 468 kinases, percent of DMSO control at 1 uM", "details_in_all_cases": "KINOMEscan binding, percent of DMSO control; read-out: Ctrl%", "key": {"[1]": {"target": "T1, ABL1(Q252H)-phosphorylated (Homo sapiens, UniProt P00519, Q252H)", "T1 construct": "phosphorylated"}, "AMPK-alpha1": {"target": "T2, AMPK-alpha1 (Homo sapiens, UniProt Q13131)", "T2 construct": "gene PRKAA1", "T2 sequence (Q13131 whole entry)": "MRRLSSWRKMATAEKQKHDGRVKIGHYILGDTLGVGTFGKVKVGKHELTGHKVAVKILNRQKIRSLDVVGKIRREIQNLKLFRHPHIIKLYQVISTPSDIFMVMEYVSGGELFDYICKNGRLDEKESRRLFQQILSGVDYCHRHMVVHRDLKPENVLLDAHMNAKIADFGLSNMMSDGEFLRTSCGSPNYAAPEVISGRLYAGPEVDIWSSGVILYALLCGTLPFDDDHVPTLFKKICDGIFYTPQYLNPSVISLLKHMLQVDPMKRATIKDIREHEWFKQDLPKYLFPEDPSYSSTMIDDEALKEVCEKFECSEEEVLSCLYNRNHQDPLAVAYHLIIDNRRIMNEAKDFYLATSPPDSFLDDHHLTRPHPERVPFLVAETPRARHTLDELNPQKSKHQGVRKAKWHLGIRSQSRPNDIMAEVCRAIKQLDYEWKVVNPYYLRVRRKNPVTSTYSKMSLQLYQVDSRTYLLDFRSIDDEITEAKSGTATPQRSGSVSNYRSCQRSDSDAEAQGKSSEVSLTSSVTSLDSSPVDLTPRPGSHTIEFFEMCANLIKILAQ"}, "ERN1": {"target": "ERN1 (Homo sapiens, UniProt O75460)"}, "CDK3": {"target": "CDK3 (Homo sapiens, UniProt Q00526)", "sequence (Q00526 whole entry)": "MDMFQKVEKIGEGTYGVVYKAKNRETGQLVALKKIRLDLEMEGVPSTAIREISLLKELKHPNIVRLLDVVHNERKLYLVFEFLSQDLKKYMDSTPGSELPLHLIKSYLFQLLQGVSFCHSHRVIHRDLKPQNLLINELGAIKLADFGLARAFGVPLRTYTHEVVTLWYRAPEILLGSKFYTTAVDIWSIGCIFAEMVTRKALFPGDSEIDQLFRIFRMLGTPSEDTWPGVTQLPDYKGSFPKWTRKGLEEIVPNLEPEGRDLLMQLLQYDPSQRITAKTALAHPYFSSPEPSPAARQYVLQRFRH"}, "HCK": {"target": "HCK (Homo sapiens, UniProt P08631)"}, "FGFR4": {"target": "FGFR4 (Homo sapiens, UniProt P22455)"}, "NIK": {"target": "T3, NIK (Homo sapiens, UniProt Q99558)", "T3 construct": "gene MAP3K14", "T3 sequence (Q99558 whole entry)": "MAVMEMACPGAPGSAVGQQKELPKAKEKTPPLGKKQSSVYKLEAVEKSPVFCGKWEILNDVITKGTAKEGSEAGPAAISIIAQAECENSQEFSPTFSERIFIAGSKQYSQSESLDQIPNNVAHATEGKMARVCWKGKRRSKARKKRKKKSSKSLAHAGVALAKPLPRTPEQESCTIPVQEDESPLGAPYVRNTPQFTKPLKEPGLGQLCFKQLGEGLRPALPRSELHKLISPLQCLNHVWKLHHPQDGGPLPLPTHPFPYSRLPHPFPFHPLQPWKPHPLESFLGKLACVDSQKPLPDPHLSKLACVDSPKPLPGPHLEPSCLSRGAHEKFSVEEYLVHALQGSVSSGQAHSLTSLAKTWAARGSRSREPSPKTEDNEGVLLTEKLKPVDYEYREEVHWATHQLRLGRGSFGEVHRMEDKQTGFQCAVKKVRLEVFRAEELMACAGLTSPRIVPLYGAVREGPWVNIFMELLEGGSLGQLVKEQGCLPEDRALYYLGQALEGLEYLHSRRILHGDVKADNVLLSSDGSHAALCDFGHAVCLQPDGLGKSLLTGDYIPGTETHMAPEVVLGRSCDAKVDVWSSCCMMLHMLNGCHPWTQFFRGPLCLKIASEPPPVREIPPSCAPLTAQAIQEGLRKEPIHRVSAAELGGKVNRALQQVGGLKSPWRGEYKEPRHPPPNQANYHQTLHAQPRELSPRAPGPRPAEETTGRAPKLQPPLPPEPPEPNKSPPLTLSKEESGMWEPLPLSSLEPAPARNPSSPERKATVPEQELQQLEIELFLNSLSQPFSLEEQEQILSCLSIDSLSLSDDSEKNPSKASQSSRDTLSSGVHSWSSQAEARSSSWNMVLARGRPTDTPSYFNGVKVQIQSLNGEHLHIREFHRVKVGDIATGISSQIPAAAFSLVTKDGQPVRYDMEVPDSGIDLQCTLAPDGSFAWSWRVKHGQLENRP"}, "MEK4": {"target": "T4, MEK4 (Homo sapiens, UniProt P45985)", "T4 construct": "gene MAP2K4"}, "ZAK": {"target": "T5, ZAK (Homo sapiens, UniProt Q9NYL2)", "T5 construct": "gene MAP3K20"}, "ACVR1B": {"target": "ACVR1B (Homo sapiens, UniProt P36896)", "sequence (P36896 whole entry)": "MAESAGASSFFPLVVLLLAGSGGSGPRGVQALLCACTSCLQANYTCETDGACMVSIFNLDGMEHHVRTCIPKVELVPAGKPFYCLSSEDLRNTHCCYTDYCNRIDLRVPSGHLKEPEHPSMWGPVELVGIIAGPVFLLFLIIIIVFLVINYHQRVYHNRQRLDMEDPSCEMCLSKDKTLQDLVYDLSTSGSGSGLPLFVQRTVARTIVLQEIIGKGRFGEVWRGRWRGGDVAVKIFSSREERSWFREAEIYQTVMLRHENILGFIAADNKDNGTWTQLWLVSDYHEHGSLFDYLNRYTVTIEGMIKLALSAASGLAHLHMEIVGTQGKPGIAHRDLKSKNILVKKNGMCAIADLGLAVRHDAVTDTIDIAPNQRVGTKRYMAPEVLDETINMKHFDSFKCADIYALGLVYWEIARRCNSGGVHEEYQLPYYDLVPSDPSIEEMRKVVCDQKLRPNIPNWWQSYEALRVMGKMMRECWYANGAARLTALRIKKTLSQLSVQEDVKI"}, "ASK2": {"target": "T6, ASK2 (Homo sapiens, UniProt O95382)", "T6 construct": "gene MAP3K6", "T6 sequence (O95382 whole entry)": "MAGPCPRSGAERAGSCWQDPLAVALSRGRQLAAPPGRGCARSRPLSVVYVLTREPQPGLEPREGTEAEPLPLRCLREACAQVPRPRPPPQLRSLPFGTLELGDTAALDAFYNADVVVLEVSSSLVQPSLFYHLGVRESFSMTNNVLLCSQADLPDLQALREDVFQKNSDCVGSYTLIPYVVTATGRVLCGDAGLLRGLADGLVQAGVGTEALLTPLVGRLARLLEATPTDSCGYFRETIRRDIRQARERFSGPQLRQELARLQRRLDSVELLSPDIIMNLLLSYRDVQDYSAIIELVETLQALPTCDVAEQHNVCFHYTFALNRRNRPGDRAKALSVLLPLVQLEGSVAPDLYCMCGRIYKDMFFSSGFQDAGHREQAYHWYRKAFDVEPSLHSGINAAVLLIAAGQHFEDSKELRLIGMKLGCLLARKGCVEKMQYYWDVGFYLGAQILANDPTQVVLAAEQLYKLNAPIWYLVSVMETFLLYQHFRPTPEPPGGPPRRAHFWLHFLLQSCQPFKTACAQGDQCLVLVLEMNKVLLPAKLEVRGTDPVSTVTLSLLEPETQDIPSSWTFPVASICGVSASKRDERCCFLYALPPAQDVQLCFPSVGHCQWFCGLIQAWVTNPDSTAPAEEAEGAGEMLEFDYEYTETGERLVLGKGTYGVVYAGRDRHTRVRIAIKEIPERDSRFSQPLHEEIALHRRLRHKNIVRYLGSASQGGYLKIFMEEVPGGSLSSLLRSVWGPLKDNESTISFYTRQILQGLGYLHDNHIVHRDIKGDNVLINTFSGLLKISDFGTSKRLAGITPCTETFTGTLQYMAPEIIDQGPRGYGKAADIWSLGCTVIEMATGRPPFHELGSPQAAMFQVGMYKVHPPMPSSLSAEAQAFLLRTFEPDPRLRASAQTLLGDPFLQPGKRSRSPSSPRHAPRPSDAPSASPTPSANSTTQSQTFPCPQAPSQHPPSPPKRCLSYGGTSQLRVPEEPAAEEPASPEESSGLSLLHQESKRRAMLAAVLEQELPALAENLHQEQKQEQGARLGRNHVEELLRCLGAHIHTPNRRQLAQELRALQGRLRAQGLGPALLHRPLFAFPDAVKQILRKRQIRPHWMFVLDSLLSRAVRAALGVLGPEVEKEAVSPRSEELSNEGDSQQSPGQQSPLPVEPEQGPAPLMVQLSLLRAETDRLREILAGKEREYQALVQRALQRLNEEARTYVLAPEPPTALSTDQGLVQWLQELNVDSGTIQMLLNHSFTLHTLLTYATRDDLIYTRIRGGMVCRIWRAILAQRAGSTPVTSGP"}, "[2]": {"target": "T7, JAK1(JH2domain-pseudokinase) (Homo sapiens, UniProt P23458)", "T7 construct": "JH2domain-pseudokinase"}, "ERK4": {"target": "T8, ERK4 (Homo sapiens, UniProt P31152)", "T8 construct": "gene MAPK4"}, "CLK1": {"target": "CLK1 (Homo sapiens, UniProt P49759)"}, "SGK3": {"target": "SGK3 (Homo sapiens, UniProt Q96BR1)"}, "DRAK2": {"target": "T9, DRAK2 (Homo sapiens, UniProt O94768)", "T9 construct": "gene STK17B"}, "GRK3": {"target": "GRK3 (Homo sapiens, UniProt P35626)"}, "CDC2L1": {"target": "T10, CDC2L1 (Homo sapiens, UniProt P21127)", "T10 construct": "gene CDK11B"}, "PIK3C2B": {"target": "PIK3C2B (Homo sapiens, UniProt O00750)"}, "PRKCI": {"target": "PRKCI (Homo sapiens, UniProt P41743)"}, "ERK2": {"target": "T11, ERK2 (Homo sapiens, UniProt P28482)", "T11 construct": "gene MAPK1", "T11 sequence (P28482 whole entry)": "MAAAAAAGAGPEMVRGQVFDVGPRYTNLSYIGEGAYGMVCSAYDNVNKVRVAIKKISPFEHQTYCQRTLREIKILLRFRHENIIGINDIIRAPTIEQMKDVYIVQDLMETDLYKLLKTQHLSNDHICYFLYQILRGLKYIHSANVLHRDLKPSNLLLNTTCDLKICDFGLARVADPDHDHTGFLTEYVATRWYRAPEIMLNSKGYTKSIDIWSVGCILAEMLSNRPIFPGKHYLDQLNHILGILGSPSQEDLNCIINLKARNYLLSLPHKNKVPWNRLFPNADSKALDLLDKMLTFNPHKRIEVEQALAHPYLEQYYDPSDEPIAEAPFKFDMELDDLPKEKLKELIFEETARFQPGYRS"}, "SIK": {"target": "T12, SIK (Homo sapiens, UniProt P57059)", "T12 construct": "gene SIK1", "T12 sequence (P57059 whole entry)": "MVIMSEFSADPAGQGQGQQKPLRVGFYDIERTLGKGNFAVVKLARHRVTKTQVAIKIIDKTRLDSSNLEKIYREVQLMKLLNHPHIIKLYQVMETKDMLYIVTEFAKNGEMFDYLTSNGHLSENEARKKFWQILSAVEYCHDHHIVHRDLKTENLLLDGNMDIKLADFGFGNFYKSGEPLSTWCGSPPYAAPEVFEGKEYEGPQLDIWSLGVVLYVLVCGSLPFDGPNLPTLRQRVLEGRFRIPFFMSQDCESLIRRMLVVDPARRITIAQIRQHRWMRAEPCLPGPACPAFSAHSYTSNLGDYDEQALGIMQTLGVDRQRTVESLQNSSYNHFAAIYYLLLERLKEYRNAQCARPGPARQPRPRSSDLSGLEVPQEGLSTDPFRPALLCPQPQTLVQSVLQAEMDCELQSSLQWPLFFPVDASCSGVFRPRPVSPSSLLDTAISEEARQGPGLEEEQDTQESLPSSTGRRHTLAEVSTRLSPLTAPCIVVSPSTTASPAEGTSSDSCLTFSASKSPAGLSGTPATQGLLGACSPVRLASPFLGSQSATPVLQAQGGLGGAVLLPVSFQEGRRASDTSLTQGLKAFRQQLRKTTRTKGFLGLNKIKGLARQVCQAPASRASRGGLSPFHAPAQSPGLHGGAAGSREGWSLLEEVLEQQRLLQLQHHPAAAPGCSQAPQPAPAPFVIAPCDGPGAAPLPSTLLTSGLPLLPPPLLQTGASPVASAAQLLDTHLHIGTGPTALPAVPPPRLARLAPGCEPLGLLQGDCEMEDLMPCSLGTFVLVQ"}, "PIP5K2B": {"target": "T13, PIP5K2B (Homo sapiens, UniProt P78356)", "T13 construct": "gene PIP4K2B"}, "NEK10": {"target": "NEK10 (Homo sapiens, UniProt Q6ZWH5)"}}, "data": [{"smiles": "Cc1ccc(NC(=O)c2cccc(C(F)(F)F)c2)cc1Nc1cc(-c2cccnc2)nc2[nH]ccc12", "note": "[HZX-02-059]", "values": [{"measurement": "remaining binding at 1 µM", "setting": "[1]", "value": 61, "unit": "%"}, {"measurement": "remaining binding at 1 µM", "setting": "AMPK-alpha1", "value": 97, "unit": "%"}, {"measurement": "remaining binding at 1 µM", "setting": "ERN1", "value": 66, "unit": "%"}, {"measurement": "remaining binding at 1 µM", "setting": "CDK3", "value": 100, "unit": "%"}, {"measurement": "remaining binding at 1 µM", "setting": "HCK", "value": 84, "unit": "%"}, {"measurement": "remaining binding at 1 µM", "setting": "FGFR4", "value": 91, "unit": "%"}, {"measurement": "remaining binding at 1 µM", "setting": "NIK", "value": 61, "unit": "%"}, {"measurement": "remaining binding at 1 µM", "setting": "MEK4", "value": 78, "unit": "%"}, {"measurement": "remaining binding at 1 µM", "setting": "ZAK", "value": 17, "unit": "%"}, {"measurement": "remaining binding at 1 µM", "setting": "ACVR1B", "value": 72, "unit": "%"}, {"measurement": "remaining binding at 1 µM", "setting": "ASK2", "value": 66, "unit": "%"}, {"measurement": "remaining binding at 1 µM", "setting": "[2]", "value": 64, "unit": "%"}, {"measurement": "remaining binding at 1 µM", "setting": "ERK4", "value": 99, "unit": "%"}, {"measurement": "remaining binding at 1 µM", "setting": "CLK1", "value": 96, "unit": "%"}, {"measurement": "remaining binding at 1 µM", "setting": "SGK3", "value": 100, "unit": "%"}, {"measurement": "remaining binding at 1 µM", "setting": "DRAK2", "value": 88, "unit": "%"}, {"measurement": "remaining binding at 1 µM", "setting": "GRK3", "value": 98, "unit": "%"}, {"measurement": "remaining binding at 1 µM", "setting": "CDC2L1", "value": 75, "unit": "%"}, {"measurement": "remaining binding at 1 µM", "setting": "PIK3C2B", "value": 100, "unit": "%"}, {"measurement": "remaining binding at 1 µM", "setting": "PRKCI", "value": 71, "unit": "%"}, {"measurement": "remaining binding at 1 µM", "setting": "ERK2", "value": 100, "unit": "%"}, {"measurement": "remaining binding at 1 µM", "setting": "SIK", "value": 90, "unit": "%"}, {"measurement": "remaining binding at 1 µM", "setting": "PIP5K2B", "value": 76, "unit": "%"}, {"measurement": "remaining binding at 1 µM", "setting": "NEK10", "value": 100, "unit": "%"}]}]}
